{
  "source": "patent EP3331365B1",
  "about": "“AGENT FOR FIGHTING FISH PARASITES” (Pharmaq AS, priority 2015, dated 2017)",
  "format_in_all_cases": "in vivo",
  "key": {"[1]": {"system": "tilapia (Oreochromis niloticus)", "experiment": "Toxicity to fish, intraperitoneal injection", "procedure": ". Tilapia of mean weight of 158 grams reared in freshwater at 29°C were distributed in three groups of 10 fish. Each group was injected with 0.05 ml of the relevant formulation, or PBS control."}, "[2]": {"system": "sea lice (L. salmonis)", "experiment": "Bath treatment of sea lice infested Atlantic salmon: count of attached female sea lice", "conditions": "2ppm for 60 minutes by bath; 12°C seawater; counted three days after treatment", "procedure": "Diafenthiuron was tested for use in treating fish parasites.\nAtlantic salmon were acclimatized to 12°C seawater.\nThree days after treatment the number of attached female sea lice was counted. The number of adult female sea lice was reduced by 56% in the treated group."}, "[3]": {"system": "Lepeophtheirus salmonis", "experiment": "Lesa assay: bioassay on salmon lice, 1 hour exposure in seawater", "conditions": "monitored until 96 hours post exposure, 8-10 °C", "procedure": "The stock was then diluted in saltwater to the appropriate concentration.\nControl formulations were also prepared comprising only solvent (acetone) and solubilizer (Kolliphor EL) in the same ratio as the test formulation. A salt water control was also used.\nBioassay experiments were then conducted on copepodites and pre-adult/adult salmon lice (Lepeophtheirus salmonis).\nAfter 1 hour exposure, the lice were transferred to modified 6 well plates and washed twice in saltwater. The plates were then incubated and the numbers of dead and surviving lice were monitored until 96 hours post exposure. The experimental temperature was maintained at 8-10 °C."}},
  "data": [
    {"compound": "CC(C)c1cc(Oc2ccccc2)cc(C(C)C)c1NC(=S)NC(C)(C)C", "note": "[Diafenthiuron, 1-tert-butyl-3-(2,6-diisopropyl-4-phenoxyphenyl)thiourea]", "values": [
      {"measurement": "% mortality", "setting": "[1]; 0.05 ml of 25 mg/ml in PEG400 (85%)/DMSO (15%), intraperitoneal injection, 5 days, same mortality in group without diafenthiuron", "value": 10, "unit": "%"},
      {"measurement": "No. of fish healthy after 5 days", "setting": "[1]; 0.05 ml of 25 mg/ml in PEG400 (85%)/DMSO (15%), intraperitoneal injection, freshwater 29°C, 10 fish", "value": "9/10"},
      {"measurement": "treated fish alive and healthy", "setting": "[1]; five days after treatment, 25 mg/ml in PEG400/DMSO, 0.05 ml intraperitoneal injection", "value": 90, "unit": "%"},
      {"measurement": "reduction of the number of adult female sea lice", "setting": "[2]", "value": 56, "unit": "%"},
      {"measurement": "% dead", "setting": "[3]; Copepodites, 0.5 ppm", "value": 77, "unit": "%"},
      {"measurement": "Dead/total", "setting": "[3]; Copepodites, 0.5 ppm", "value": "10/13"},
      {"measurement": "% dead", "setting": "[3]; Copepodites, 2.0 ppm", "value": 100, "unit": "%"},
      {"measurement": "Dead/total", "setting": "[3]; Copepodites, 2.0 ppm", "value": "20/20"},
      {"measurement": "% dead", "setting": "[3]; Copepodites, 20 ppb", "value": 48, "unit": "%"},
      {"measurement": "Dead/total", "setting": "[3]; Copepodites, 20 ppb", "value": "11/23"},
      {"measurement": "% dead", "setting": "[3]; Pre-adult/adult, 2.0 ppm", "value": 100, "unit": "%"},
      {"measurement": "Dead/total", "setting": "[3]; Pre-adult/adult, 2.0 ppm", "value": "5/5"}
    ]}
  ]
}
